Consider 12 molecules from publication PMC11125953 (Viruses, 2024).

Where a name gives a salt, the structure may show the parent alone. Read-outs that look alike come from different tables or passages of the source.

Data set [1] has as its system EHV-4 405/76 reference strain. The data set can be described thus: microbe, parasite or virus in culture.
The subject of data set [2] is EHV-4 405/76 reference strain. The settings on record: ratio of CC50 to EC50 obtained by qPCR. (In general: Quantitative PCR measures a nucleic acid by following its amplification.)
Data set [3] relates to EHV-4 405/76 reference strain. The settings on record: for CIT50 increase: RTCA, EHV-4-infected E. Derm cells; for Si (CC50/EC50, RTCA): ratio of CC50 to EC50 obtained by RTCA.
Data set [4] can be described thus: Cytotoxicity by CellTiter-Glo. The settings on record: horse. Background: Cellular ATP, detected with luciferase, serves as a proxy for viable cell number.
Data set [5] has as its system EHV-4 405/76 reference strain. In words: RTCA. It counts as cell-based, Equid herpesvirus 4. The settings on record: area under normalized Cell Index curves, 0-120 hpi, EHV-4-infected E. Derm cells.
Data set [6] in a line: Cytotoxicity by impedance using RTCA. The settings on record: horse, E. Derm cells.
Data set [7] deals with EHV-4 405/76 reference strain. In words: microbe, parasite or virus in culture. This is another data set of the same source.
A further data set has as its system mice. Conditions: mouse, in vivo; cited from earlier work.
Data set [8] can be described thus: in vitro. Conditions: horse.
The nature of data set [9]: in vitro. Conditions: horse. This is another data set of the same source.
The conditions of data set [10]: in vivo; cited from earlier work.
Setting [11] is: Equid alphaherpesvirus 4, read-out: qPCR EC50 (µM ± S.D).
Where [12] appears, read: Equid alphaherpesvirus 4, read-out: qPCR EC50 (µg/mL ± S.D).
Where [13] appears, read: Equid alphaherpesvirus 4, read-out: RTCA EC50 (µM ± S.D).
Where [14] appears, read: Equid alphaherpesvirus 4, read-out: RTCA EC50 (µg/mL ± S.D).

As for `C[C@@]1(CO)[C@H](O)CC[C@@]2(C)[C@H]1CC[C@H]1C[C@@H]3C[C@@]12CC[C@]3(O)CO` [Aphidicolin], the EC50 in data set [1] (setting [11]) was found to be 0.31 ± 0.09 µM; in data set [1] (setting [12]) it was 0.11 ± 0.03 µg/mL; in data set [7] (setting [13]), 2.16 ± 0.18 µM. For the same molecule, the “SI (CC50 CellTiter-Glo/EC50 qPCR)” value in data set [2] is more than 161.29. Also, the CIT50 increase in [3] (1.25 µM) came to 7.48 ± 2.69 h; in data set [3] (2.5 µM), 22.43 ± 4.89 h. For the same molecule, in data set [3], the “Si (CC50/EC50, RTCA)” value was more than 23.15. Besides, the CC50 in data set [4] and in [6] was more than 50 µM in each case. Besides, the AUCn in [5] (0.4 µM) amounted to 27.44; in data set [5] (2 µM) it was 81.72; in data set [5] (10 µM), 106.29.
As for `Cc1nc(N(C)C(=O)Cc2ccc(-c3ccccn3)cc2)sc1S(N)(=O)=O` [BAY 57-1293, pritelivir], the EC50 turned out to be 3.31 ± 0.89 µM in data set [1] (setting [11]), 1.33 ± 0.36 µg/mL in [1] (setting [12]), 17.8 ± 1.2 µM in data set [7] (setting [13]) and 7.15 ± 0.48 µg/mL in [7] (setting [14]). Also, the “SI (CC50 CellTiter-Glo/EC50 qPCR)” value in data set [2] was more than 15.11. The “Si (CC50/EC50, RTCA)” value in data set [3] was more than 2.81. For the same molecule, the CC50 in data set [4] (E. Derm cells) and in data set [6] was more than 50 µM in each case. Moreover, the AUCn was 27.43 in data set [5] (0.4 µM), 27.62 in [5] (2 µM), 44.70 in [5] (10 µM) and 145.59 in data set [5] (50 µM).
For the molecule `Nc1ccn(C[C@@H](CO)OCP(=O)(O)O)c(=O)n1` [Cidofovir], the EC50 came to 7.99 ± 3.38 µM in data set [1] (setting [11]), 2.23 ± 0.94 µg/mL in data set [1] (setting [12]), 12.6 ± 4.32 µM in data set [7] (setting [13]) and 3.5 ± 1.21 µg/mL in data set [7] (setting [14]). In addition, the “SI (CC50 CellTiter-Glo/EC50 qPCR)” value in [2] is recorded as more than 6.26. Further, the “Si (CC50/EC50, RTCA)” value in data set [3] is more than 3.98. Also, the CC50 in data set [4] (E. Derm cells) and in [6] was more than 50 µM throughout. Further, the AUCn came to 38.54 in [5] (0.4 µM), 42.07 in data set [5] (2 µM), 40.56 in [5] (10 µM) and 59.40 in [5] (50 µM).
On to `Nc1ncn([C@H]2C[C@H](O)[C@@H](CO)O2)c(=O)n1` [Decitabine], for which the EC50 in data set [1] (setting [11]) worked out at 0.28 ± 0.05 µM; in data set [1] (setting [12]), 0.06 ± 0.01 µg/mL; in data set [7] (setting [13]) it was 1.16 ± 0.31 µM; in data set [7] (setting [14]), 0.26 ± 0.07 µg/mL. In addition, the “SI (CC50 CellTiter-Glo/EC50 qPCR)” value in data set [2] was more than 178.57. The results for the CIT50 increase in data set [3] (0.78 µM) and in data set [3] (1.56 µM) were 25.66 ± 10.74 h and 30.13 ± 15.34 h, respectively. Further, the “Si (CC50/EC50, RTCA)” value in data set [3] is listed as more than 43.10. Moreover, the CC50 in data set [4] (E. Derm cells) and in data set [6] was more than 50 µM throughout. The AUCn is 73.51 in data set [5] (0.4 µM), 93.80 in data set [5] (2 µM), 120.54 in data set [5] (10 µM) and 128.21 in data set [5] (50 µM). For the same molecule, the toxic concentration in the data set on mice is approximately 25 µM.
For `Nc1nc(O)c2ncn(COC(CO)CO)c2n1` [Ganciclovir], the EC50 in data set [1] (setting [11]) stood at 1.32 ± 1.06 µM; in data set [1] (setting [12]), 0.34 ± 0.27 µg/mL; in data set [7] (setting [13]), 4.05 ± 0.22 µM; in data set [7] (setting [14]) it was 1.03 ± 0.06 µg/mL. Further, in [2], the “SI (CC50 CellTiter-Glo/EC50 qPCR)” value is recorded as more than 37.88. For the same molecule, the CC50 in the data set “in vitro [8]” and in the data set “in vitro [9]” was more than 50 µM throughout. The “Si (CC50/EC50, RTCA)” value in [3] is listed as more than 12.35. Moreover, the AUCn in [5] (0.4 µM) was 57.9; in [5] (2 µM) it was 74.3; in data set [5] (10 µM), 116.3; in data set [5] (50 µM) it was 138.7.
For the molecule `O=c1[nH]c(=O)n([C@H]2C[C@H](O)[C@@H](CO)O2)cc1I` [Idoxuridine], the EC50 came to 7.49 ± 1 µM in [1] (setting [11]), 2.65 ± 0.35 µg/mL in data set [1] (setting [12]), 33.8 ± 15.8 µM in [7] (setting [13]) and 11.9 ± 5.61 µg/mL in data set [7] (setting [14]). Further, the “SI (CC50 CellTiter-Glo/EC50 qPCR)” value in data set [2] is given as more than 6.68. Further, the CC50 in the data set “in vitro [8]” and in the data set “in vitro [9]” was more than 50 µM throughout. In [3], the “Si (CC50/EC50, RTCA)” value was more than 1.48. Besides, the AUCn in data set [5] (0.4 µM) is 36.8; in data set [5] (2 µM), 30.6; in [5] (10 µM) it was 63.0; in data set [5] (50 µM) it was 143.7.
In the case of `Cc1cn([C@H]2C=C[C@@H](CO)O2)c(=O)[nH]c1=O` [Stavudine], the AUCn in [5] (0.4 µM) is recorded as 37.85; in data set [5] (2 µM), 32.94; in data set [5] (10 µM), 32.23; in [5] (50 µM), 30.20.
Regarding `Cc1cn([C@@H]2C[C@@H](O)[C@H](CO)O2)c(=O)[nH]c1=O` [Telbivudine], the AUCn came out at 30.51 in data set [5] (0.4 µM), 35.43 in data set [5] (2 µM), 31.31 in data set [5] (10 µM) and 39.04 in data set [5] (50 µM).
Take `CC(C)OC(=O)OCOP(=O)(CO[C@H](C)Cn1cnc2c(N)ncnc21)OCOC(=O)OC(C)C` [Tenofovir disoproxil]: the AUCn in data set [5] (0.4 µM) is recorded as 34.89; in data set [5] (2 µM), 43.49; in data set [5] (10 µM), 93.87; in [5] (50 µM) it was 52.88.
Taken in the same sequence, the figures for `CC(C)[C@H](N)C(=O)OCCOCn1cnc2c(=O)[nH]c(N)nc21` [Valaciclovir] were 33.27, 28.12, 27.99 and 42.38.
On to `CC(C)[C@H](N)C(=O)OCC(CO)OCn1cnc2c(=O)nc(N)[nH]c21` (stereo partly shown) [Valganciclovir hydrochloride], for which the EC50 in [1] (setting [11]) worked out at 3.6 ± 1.02 µM; in data set [1] (setting [12]) it was 1.28 ± 0.36 µg/mL; in [7] (setting [13]), 9.55 ± 2.81 µM; in data set [7] (setting [14]), 3.38 ± 1 µg/mL. Besides, in data set [2], the “SI (CC50 CellTiter-Glo/EC50 qPCR)” value is more than 13.89. The CC50 in “in vitro [8]” and in the data set “in vitro [9]” was more than 50 µM each time. In addition, the “Si (CC50/EC50, RTCA)” value in [3] is more than 5.24. Also, the AUCn in data set [5] (0.4 µM) came out at 33.79; in [5] (2 µM) it was 42.41; in [5] (10 µM), 75.80; in data set [5] (50 µM), 145.98. For the same molecule, the “improvement of the bioavailability of ganciclovir by oral valganciclovir” value in data set [10] is listed as 41 ± 20%.
As to `Nc1ncnc2c1ncn2[C@@H]1O[C@H](CO)[C@@H](O)[C@@H]1O` [Vidarabine], the EC50 was found to be 13.7 ± 1.92 µM in [1] (setting [11]), 3.91 ± 0.55 µg/mL in data set [1] (setting [12]), 17 ± 4.5 µM in data set [7] (setting [13]) and 4.85 ± 1.28 µg/mL in [7] (setting [14]). The CC50 in the data set “in vitro [8]” and in “in vitro [9]” was more than 50 µM throughout. Besides, the “Si (CC50/EC50, RTCA)” value in [3] is more than 2.94. The AUCn in [5] (0.4 µM) is 41.3; in [5] (2 µM), 35.7; in data set [5] (10 µM), 48.7; in [5] (50 µM), 71.5.
